# Test results from patent US20150011423A1, “MEANS AND METHODS FOR ASSESSING KIDNEY TOXICITY” (BASF SE, priority 2011, published 2015).
# Marks after values point to notes of the source that are not given here.
# Tested on: rats
# Experiment: 28-day repeated dose study in rats with mass spectrometry-based plasma metabolite profiling (GC-MS, LC-MS, SPE-LC-MS); treatment ratios versus control
# Conditions: plasma; for Choline plasmalogen No 02 (putative), treatment ratio versus control / Lysophosphatidylcholine (C17:0), treatment ratio versus control / TAG (C42:9) (DAG-Fragment) (putative), treatment ratio versus control / Lyso PE (C22:0) (putative), treatment ratio versus control: male rats, Table 11b alpha 2 u globulin-nephropathy
# [1] = day 7, high doses except for 1,1,2,2-tetrachloroethane
# [2] = day 14, high doses except for 1,1,2,2-tetrachloroethane
# [3] = day 28, high doses except for 1,1,2,2-tetrachloroethane
# [4] = female rats, day 28, high dose, Table 5a tubular necrosis
# [5] = female rats, day 28, high dose, Table 5b tubular necrosis
structure (smiles),measurement,setting,value
"ClC(Cl)C(Cl)Cl [1,1,2,2-Tetrachloroethane]",3-Hydroxyindole (ratio treated vs control),"m7: male rats, day 7",1.39
same,"4-Hydroxysphinganine (t18:0, Phytosphingosine), total (ratio treated vs control)","m7: male rats, day 7",2.03
same,Glucuronic acid (ratio treated vs control),"m7: male rats, day 7",3.97
same,Glutamate (ratio treated vs control),"m7: male rats, day 7",2.31
same,Nervonic acid (C24:cis[15]1) (ratio treated vs control),"m7: male rats, day 7",1.09
same,Oleic acid (C18:cis[9]1) (ratio treated vs control),"m7: male rats, day 7",1.11
same,Ornithine (ratio treated vs control),"m7: male rats, day 7",2.10
same,Pantothenic acid (ratio treated vs control),"m7: male rats, day 7",4.46
same,"Phosphatidylcholine (C18:0, C18:1) (ratio treated vs control)","m7: male rats, day 7",1.48
same,Pseudouridine (ratio treated vs control),"m7: male rats, day 7",1.17
same,"Sphingomyelin (d18:1, C16:0) (ratio treated vs control)","m7: male rats, day 7",1.65
same,"Sphingomyelin (d18:2, C18:0) (ratio treated vs control)","m7: male rats, day 7",1.22
same,Xylitol (ratio treated vs control),"m7: male rats, day 7",12.21
same,"dihomo-gamma-Linolenic acid (C20:cis[8,11,14]3) (ratio treated vs control)","m7: male rats, day 7",2.56
same,3-Hydroxyindole (ratio treated vs control),"m14: male rats, day 14",2.05
same,"4-Hydroxysphinganine (t18:0, Phytosphingosine), total (ratio treated vs control)","m14: male rats, day 14",2.04
same,Glucuronic acid (ratio treated vs control),"m14: male rats, day 14",1.20
same,Glutamate (ratio treated vs control),"m14: male rats, day 14",1.80
same,Nervonic acid (C24:cis[15]1) (ratio treated vs control),"m14: male rats, day 14",0.96
same,Oleic acid (C18:cis[9]1) (ratio treated vs control),"m14: male rats, day 14",1.18
same,Ornithine (ratio treated vs control),"m14: male rats, day 14",2.38
same,Pantothenic acid (ratio treated vs control),"m14: male rats, day 14",4.32
same,"Phosphatidylcholine (C18:0, C18:1) (ratio treated vs control)","m14: male rats, day 14",1.21
same,Pseudouridine (ratio treated vs control),"m14: male rats, day 14",1.51
same,"Sphingomyelin (d18:1, C16:0) (ratio treated vs control)","m14: male rats, day 14",1.34
same,"Sphingomyelin (d18:2, C18:0) (ratio treated vs control)","m14: male rats, day 14",0.93
same,Xylitol (ratio treated vs control),"m14: male rats, day 14",10.32
same,"dihomo-gamma-Linolenic acid (C20:cis[8,11,14]3) (ratio treated vs control)","m14: male rats, day 14",3.40
same,3-Hydroxyindole (ratio treated vs control),"m28: male rats, day 28",2.05
same,"4-Hydroxysphinganine (t18:0, Phytosphingosine), total (ratio treated vs control)","m28: male rats, day 28",2.04
same,Glucuronic acid (ratio treated vs control),"m28: male rats, day 28",1.20
same,Glutamate (ratio treated vs control),"m28: male rats, day 28",1.80
same,Nervonic acid (C24:cis[15]1) (ratio treated vs control),"m28: male rats, day 28",0.96
same,Oleic acid (C18:cis[9]1) (ratio treated vs control),"m28: male rats, day 28",1.18
same,Ornithine (ratio treated vs control),"m28: male rats, day 28",2.38
same,Pantothenic acid (ratio treated vs control),"m28: male rats, day 28",4.32
same,"Phosphatidylcholine (C18:0, C18:1) (ratio treated vs control)","m28: male rats, day 28",1.21
same,Pseudouridine (ratio treated vs control),"m28: male rats, day 28",1.51
same,"Sphingomyelin (d18:1, C16:0) (ratio treated vs control)","m28: male rats, day 28",1.34
same,"Sphingomyelin (d18:2, C18:0) (ratio treated vs control)","m28: male rats, day 28",0.93
same,Xylitol (ratio treated vs control),"m28: male rats, day 28",10.32
same,"dihomo-gamma-Linolenic acid (C20:cis[8,11,14]3) (ratio treated vs control)","m28: male rats, day 28",3.40
same,"Choline plasmalogen No 02 (putative), treatment ratio versus control",[1],1.04
same,"Lysophosphatidylcholine (C17:0), treatment ratio versus control",[1],0.63
same,"TAG (C42:9) (DAG-Fragment) (putative), treatment ratio versus control",[1],0.76
same,"Choline plasmalogen No 02 (putative), treatment ratio versus control",[2],1.13
same,"Lysophosphatidylcholine (C17:0), treatment ratio versus control",[2],0.89
same,"TAG (C42:9) (DAG-Fragment) (putative), treatment ratio versus control",[2],0.72
same,"Choline plasmalogen No 02 (putative), treatment ratio versus control",[3],1.13
same,"Lysophosphatidylcholine (C17:0), treatment ratio versus control",[3],0.89
same,"TAG (C42:9) (DAG-Fragment) (putative), treatment ratio versus control",[3],0.72
"CC(C)CC(C)(C)C [2,2,4-Trimethylpentane, 2,2,4-trimethylpentane]",3-Hydroxyindole (ratio treated vs control),"m7: male rats, day 7",1.92
same,"4-Hydroxysphinganine (t18:0, Phytosphingosine), total (ratio treated vs control)","m7: male rats, day 7",1.46
same,Glucuronic acid (ratio treated vs control),"m7: male rats, day 7",3.88
same,Glutamate (ratio treated vs control),"m7: male rats, day 7",1.57
same,Nervonic acid (C24:cis[15]1) (ratio treated vs control),"m7: male rats, day 7",1.60
same,Oleic acid (C18:cis[9]1) (ratio treated vs control),"m7: male rats, day 7",2.10
same,Ornithine (ratio treated vs control),"m7: male rats, day 7",1.12
same,Pantothenic acid (ratio treated vs control),"m7: male rats, day 7",2.59
same,"Phosphatidylcholine (C18:0, C18:1) (ratio treated vs control)","m7: male rats, day 7",1.35
same,Pseudouridine (ratio treated vs control),"m7: male rats, day 7",1.23
same,"Sphingomyelin (d18:1, C16:0) (ratio treated vs control)","m7: male rats, day 7",1.62
same,"Sphingomyelin (d18:2, C18:0) (ratio treated vs control)","m7: male rats, day 7",1.35
same,Xylitol (ratio treated vs control),"m7: male rats, day 7",1.65
same,"dihomo-gamma-Linolenic acid (C20:cis[8,11,14]3) (ratio treated vs control)","m7: male rats, day 7",2.42
same,3-Hydroxyindole (ratio treated vs control),"m14: male rats, day 14",2.88
same,"4-Hydroxysphinganine (t18:0, Phytosphingosine), total (ratio treated vs control)","m14: male rats, day 14",1.34
same,Glucuronic acid (ratio treated vs control),"m14: male rats, day 14",3.87
same,Glutamate (ratio treated vs control),"m14: male rats, day 14",1.44
same,Nervonic acid (C24:cis[15]1) (ratio treated vs control),"m14: male rats, day 14",1.38
same,Oleic acid (C18:cis[9]1) (ratio treated vs control),"m14: male rats, day 14",2.37
same,Ornithine (ratio treated vs control),"m14: male rats, day 14",1.23
same,Pantothenic acid (ratio treated vs control),"m14: male rats, day 14",3.07
same,"Phosphatidylcholine (C18:0, C18:1) (ratio treated vs control)","m14: male rats, day 14",1.34
same,Pseudouridine (ratio treated vs control),"m14: male rats, day 14",1.31
same,"Sphingomyelin (d18:1, C16:0) (ratio treated vs control)","m14: male rats, day 14",1.59
same,"Sphingomyelin (d18:2, C18:0) (ratio treated vs control)","m14: male rats, day 14",1.28
same,Xylitol (ratio treated vs control),"m14: male rats, day 14",1.33
same,"dihomo-gamma-Linolenic acid (C20:cis[8,11,14]3) (ratio treated vs control)","m14: male rats, day 14",2.06
same,3-Hydroxyindole (ratio treated vs control),"m28: male rats, day 28",2.30
same,"4-Hydroxysphinganine (t18:0, Phytosphingosine), total (ratio treated vs control)","m28: male rats, day 28",1.26
same,Glucuronic acid (ratio treated vs control),"m28: male rats, day 28",3.46
same,Glutamate (ratio treated vs control),"m28: male rats, day 28",1.74
same,Nervonic acid (C24:cis[15]1) (ratio treated vs control),"m28: male rats, day 28",1.22
same,Oleic acid (C18:cis[9]1) (ratio treated vs control),"m28: male rats, day 28",2.97
same,Ornithine (ratio treated vs control),"m28: male rats, day 28",1.23
same,Pantothenic acid (ratio treated vs control),"m28: male rats, day 28",3.03
same,"Phosphatidylcholine (C18:0, C18:1) (ratio treated vs control)","m28: male rats, day 28",1.35
same,Pseudouridine (ratio treated vs control),"m28: male rats, day 28",1.28
same,"Sphingomyelin (d18:1, C16:0) (ratio treated vs control)","m28: male rats, day 28",1.54
same,"Sphingomyelin (d18:2, C18:0) (ratio treated vs control)","m28: male rats, day 28",1.23
same,Xylitol (ratio treated vs control),"m28: male rats, day 28",1.68
same,"dihomo-gamma-Linolenic acid (C20:cis[8,11,14]3) (ratio treated vs control)","m28: male rats, day 28",2.77
same,"Choline plasmalogen No 02 (putative), treatment ratio versus control",[1],0.72
same,"Lyso PE (C22:0) (putative), treatment ratio versus control",[1],0.54
same,"Lysophosphatidylcholine (C17:0), treatment ratio versus control",[1],0.72
same,"TAG (C42:9) (DAG-Fragment) (putative), treatment ratio versus control",[1],0.67
same,"Choline plasmalogen No 02 (putative), treatment ratio versus control",[2],0.73
same,"Lyso PE (C22:0) (putative), treatment ratio versus control",[2],0.49
same,"Lysophosphatidylcholine (C17:0), treatment ratio versus control",[2],0.73
same,"TAG (C42:9) (DAG-Fragment) (putative), treatment ratio versus control",[2],0.64
same,"Choline plasmalogen No 02 (putative), treatment ratio versus control",[3],0.81
same,"Lyso PE (C22:0) (putative), treatment ratio versus control",[3],0.45
same,"Lysophosphatidylcholine (C17:0), treatment ratio versus control",[3],0.80
same,"TAG (C42:9) (DAG-Fragment) (putative), treatment ratio versus control",[3],0.76
C[C@@H]1[C@H](O)[C@@H](C)/C=C/C=C/C=C/C=C/C=C/C=C/C=C/[C@H](O[C@@H]2O[C@H](C)[C@@H](O)[C@H](N)[C@@H]2O)C[C@@H]2O[C@](O)(C[C@@H](O)C[C@@H](O)[C@H](O)CC[C@@H](O)C[C@@H](O)CC(=O)O[C@H]1C)C[C@H](O)[C@H]2C(=O)O [Amphotericin B],"Docosahexaenoic acid (C22:cis[4,7,10,13,16,19]6), treatment ratio versus control",[4],1.32 *
same,"Docosapentaenoic acid (C22:cis[7,10,13,16,19]5), treatment ratio versus control",[4],1.23 *
same,"Eicosanoic acid (C20:0), treatment ratio versus control",[4],1.18 *
same,"Glycerol, lipid fraction, treatment ratio versus control",[4],1.31 *
same,"Leucine, treatment ratio versus control",[4],1.21 *
same,"Phosphate (inorganic and organic phosphates), treatment ratio versus control",[4],1.25 *
same,"Hippuric acid, treatment ratio versus control",[5],0.44 *
same,"Lactate, treatment ratio versus control",[5],0.68 *
